# Source: patent US20150148551A1, “GENISTEIN FOR REDUCING LEVELS OF STORAGE COMPOUNDS IN THE TREATMENT AND/OR PREVENTION OF LYSOSOMAL STORAGE DISEASES (LSDS)” (3G THERAPEUTICS, INC., priority 2012, published 2015)
# Legend:
# SUMF1 = experiment: DNA microarray, SUMF1 expression in fibroblasts exposed to genistein; type: cell-based, human; conditions: for SUMF1 fold change Average: 48 h vs DMSO
# Description: (§1) The experiments were conducted to characterise the transcriptomic profile of human fibroblast cells exposed to genistein, and in particular to determine the expression of genes encoding lysosomal enzymes involved in metabolism (i.e. synthesis and degradation) of organic substances. The absence or deficiency of these enzymes' activity is responsible for occurrence of various lysosomal storage diseases (LSD) (including MPS). The tested hypothesis assumed that genistein influences the expression of many genes, among which there are genes coding for enzymes required in metabolism of compounds, which are pathologically stored in LSD. The results provide important information regarding genistein action on the molecular level within the range of gene expression modulation by this substance. The experiment was conducted in biological quintuplicates. Human dermal fibroblasts (HDFa) were exposed in vitro for 1, 24 or 48 hours to: 30, 60 or 100 μM of genistein; 0.05% DMSO (K1); or were untreated (control cells) (K2), and total RNA was isolated and analysed.
# (§2) Fibroblast cells were grown in Dulbecco (DMEM) medium supplemented with 10% fetal bovine serum (FBS) with the addition of 1% antibiotics and anti-fungal agents at 37° C. in humidified atmosphere of 5% CO2, until the required confluency was obtained.
# (§3) To determine the effect of tested compound on the transcriptom of the fibroblast cells, the growth medium was replaced with fresh medium, either non-supplemented (0.05% DMSO), or containing genistein (30, 60 or 100 μM, in 0.05% DMSO). The exposure was done for 1, 24 or 48 hours.
# (§4) Total RNA was isolated from fibroblasts using High Pure RNA Isolation Kit according to the protocol and then it was quantitatively evaluated using Quant-It™ RiboGreen® Assay Kit.
# (§5) Biotinylated cRNA was prepared using Ambion Total PrepAmp Kit for Illumina arrays.
# (§6) Standard hybridization and quantitative image analysis procedures—Illumina hybridization protocol and Illumina scanning protocol, were used.
# (§7) Processing of the results was done during data definition, including: background correction (using background subtraction method), normalization (using quantile normalization algorithm with Illumina GenomeStudio software package: gene expression module version 1.9.0) and summarization (using method, which sums the values of signal intensities from a set of probes).
# ARSG = experiment: DNA microarray, ARSG expression in fibroblasts exposed to genistein; type: cell-based, human; conditions: for ARSG fold change Average: 48 h vs DMSO
# Description: as §1, §2, §3, §4, §5, §6, §7
# CTSD = experiment: DNA microarray, CTSD expression in fibroblasts exposed to genistein; type: cell-based, human; conditions: for CTSD fold change Average: 48 h vs DMSO
# Description: as §1, §2, §3, §4, §5, §6, §7
# CTSK = experiment: DNA microarray, CTSK expression in fibroblasts exposed to genistein; type: cell-based, human; conditions: for CTSK fold change Average: 48 h vs DMSO
# Description: as §1, §2, §3, §4, §5, §6, §7
# ACP2 = experiment: DNA microarray, ACP2 expression in fibroblasts exposed to genistein; type: cell-based, human; conditions: for ACP2 fold change Average: 48 h vs DMSO
# Description: as §1, §2, §3, §4, §5, §6, §7
# FVT1 = experiment: DNA microarray, FVT1 expression in fibroblasts exposed to genistein; type: cell-based, human; conditions: for FVT1 fold change Average: 48 h vs DMSO
# Description: as §1, §2, §3, §4, §5, §6, §7
# CD164 = experiment: DNA microarray, CD164 expression in fibroblasts exposed to genistein; type: cell-based, human; conditions: for CD164 fold change Average: 48 h vs DMSO
# Description: as §1, §2, §3, §4, §5, §6, §7
# SLC11A2 = experiment: DNA microarray, SLC11A2 expression in fibroblasts exposed to genistein; type: cell-based, human; conditions: for SLC11A2 fold change Average: 48 h vs DMSO
# Description: as §1, §2, §3, §4, §5, §6, §7
# [1] = humans and animals; cited from earlier work
smiles,measurement,setting,value
"O=c1c(-c2ccc(O)cc2)coc2cc(O)cc(O)c12 [genistein, 4′,5,7-trihydroxy-3-phenylchromen-4-one]",SUMF1 fold change Average 1h60/1hK1,"SUMF1; 60 μM, 1 h vs 0.05% DMSO",1.158 fold change
same,SUMF1 fold change Average,SUMF1; 60 μM,1.849 fold change
same,SUMF1 fold change Average 1h100/1hK1,"SUMF1; 100 μM, 1 h vs 0.05% DMSO",1.095 fold change
same,SUMF1 fold change Average,SUMF1; 100 μM,1.705 fold change
same,ARSG fold change Average 1h30/1hK1,"ARSG; 30 μM, 1 h vs 0.05% DMSO",1.083 fold change
same,ARSG fold change Average,ARSG; 30 μM,1.3921 fold change
same,ARSG fold change Average 1h60/1hK1,"ARSG; 60 μM, 1 h vs 0.05% DMSO",1.204 fold change
same,ARSG fold change Average,ARSG; 60 μM,2.488 fold change
same,ARSG fold change Average 1h100/1hK1,"ARSG; 100 μM, 1 h vs 0.05% DMSO",0.961 fold change
same,ARSG fold change Average,ARSG; 100 μM,1.81 fold change
same,CTSD fold change Average 1h30/1hK1,"CTSD; 30 μM, 1 h vs 0.05% DMSO",0.9734 fold change
same,CTSD fold change Average,CTSD; 30 μM,1.3322 fold change
same,CTSD fold change Average 1h60/1hK1,"CTSD; 60 μM, 1 h vs 0.05% DMSO",1.119 fold change
same,CTSD fold change Average,CTSD; 60 μM,1.302 fold change
same,CTSD fold change Average 1h100/1hK1,"CTSD; 100 μM, 1 h vs 0.05% DMSO",1.018 fold change
same,CTSD fold change Average,CTSD; 100 μM,1.939 fold change
same,CTSK fold change Average 1h30/1hK1,"CTSK; 30 μM, 1 h vs 0.05% DMSO",0.9778 fold change
same,CTSK fold change Average,CTSK; 30 μM,1.2621 fold change
same,CTSK fold change Average 1h60/1hK1,"CTSK; 60 μM, 1 h vs 0.05% DMSO",1.108 fold change
same,CTSK fold change Average,CTSK; 60 μM,1.387 fold change
same,CTSK fold change Average 1h100/1hK1,"CTSK; 100 μM, 1 h vs 0.05% DMSO",0.9868 fold change
same,CTSK fold change Average,CTSK; 100 μM,1.541 fold change
same,ACP2 fold change Average 1h30/1hK1,"ACP2; 30 μM, 1 h vs 0.05% DMSO",1.0116 fold change
same,ACP2 fold change Average,ACP2; 30 μM,1.0451 fold change
same,ACP2 fold change Average 1h60/1hK1,"ACP2; 60 μM, 1 h vs 0.05% DMSO",0.95 fold change
same,ACP2 fold change Average,ACP2; 60 μM,1.063 fold change
same,ACP2 fold change Average 1h100/1hK1,"ACP2; 100 μM, 1 h vs 0.05% DMSO",0.9804 fold change
same,ACP2 fold change Average,ACP2; 100 μM,1.147 fold change
same,FVT1 fold change Average 1h30/1hK1,"FVT1; 30 μM, 1 h vs 0.05% DMSO",1.0953 fold change
same,FVT1 fold change Average,FVT1; 30 μM,1.2441 fold change
same,FVT1 fold change Average 1h60/1hK1,"FVT1; 60 μM, 1 h vs 0.05% DMSO",1.137 fold change
same,FVT1 fold change Average,FVT1; 60 μM,1.603 fold change
same,FVT1 fold change Average 1h100/1hK1,"FVT1; 100 μM, 1 h vs 0.05% DMSO",1.035 fold change
same,FVT1 fold change Average,FVT1; 100 μM,1.422 fold change
same,CD164 fold change Average 1h30/1hK1,"CD164; 30 μM, 1 h vs 0.05% DMSO",1.0714 fold change
same,CD164 fold change Average,CD164; 30 μM,0.9618 fold change
same,CD164 fold change Average 1h60/1hK1,"CD164; 60 μM, 1 h vs 0.05% DMSO",1.49 fold change
same,CD164 fold change Average 1h100/1hK1,"CD164; 100 μM, 1 h vs 0.05% DMSO",1.002 fold change
same,CD164 fold change Average,CD164; 100 μM,1.282 fold change
same,SLC11A2 fold change Average 1h30/1hK1,"SLC11A2; 30 μM, 1 h vs 0.05% DMSO",1.0227 fold change
same,SLC11A2 fold change Average,SLC11A2; 30 μM,1.2196 fold change
same,SLC11A2 fold change Average 1h60/1hK1,"SLC11A2; 60 μM, 1 h vs 0.05% DMSO",1.053 fold change
same,SLC11A2 fold change Average,SLC11A2; 60 μM,1.549 fold change
same,SLC11A2 fold change Average 1h100/1hK1,"SLC11A2; 100 μM, 1 h vs 0.05% DMSO",1.056 fold change
same,SLC11A2 fold change Average,SLC11A2; 100 μM,1.499 fold change
same,tolerability,[1],well-tolerated
